In patent US20040097421A1 (priority 2000, published 2004):
Counter-ions that a name gives are not always drawn.

Columns and labels:
[1] = system: solid fresh human tumour specimens (PHTC); assay type: cell-based
[2] = system: panel of ten human tumour cell lines; assay type: cell-based
[3] = system: U-1752 (non-small cell lung cancer); assay: cells; assay type: cell-based; details: Homo sapiens, read-out: IC50 (μM), U-1752
[4] = system: NCI-H611 (non-small cell lung cancer); assay: cells; assay type: cell-based; details: Homo sapiens, read-out: IC50 (μM), NCI-H611
[5] = system: U-1568 (non-small cell lung cancer); assay: cells; assay type: cell-based; details: Homo sapiens, read-out: IC50 (μM), U-1568
[6] = system: U1906L (small cell lung cancer); assay: cells; assay type: cell-based; details: Homo sapiens, read-out: IC50 (μM), U1906L
[7] = system: U1285 (small cell lung cancer); assay: cells; assay type: cell-based; details: Homo sapiens, read-out: IC50 (μM), U1285
[8] = system: U-1906E (small cell lung cancer); assay: cells; assay type: cell-based; details: Homo sapiens, read-out: IC50 (μM), U-1906E
[9] = system: U1690 (small cell lung cancer); assay: cells; assay type: cell-based; details: Homo sapiens, read-out: IC50 (μM), U1690
[10] = system: hematological fresh human tumour specimens (PHTC); assay type: cell-based
[11] = system: CEM/S (leukemia CCRF-CEM); assay: cells; assay type: cell-based; details: Homo sapiens, 72 h, read-out: IC50 (μM), CEM/S
[12] = system: 8226S (myeloma RPMI 8226); assay: cells; assay type: cell-based, human; details: Homo sapiens, RPMI-8226, 72 h, read-out: IC50 (μM), 8226S
[13] = system: fresh human tumour specimens (fourteen hematological, thirteen solid); assay: FMCA, IC50 comparison in 27 fresh human tumour specimens; assay type: cell-based; details: 27 human tumour samples, 82 to 0.131 μM
[14] = system: H69AR (doxorubicin resistance subline); assay type: cell-based, human
[15] = system: Ovarian carcinoma tumor cell system; assay: Cytotoxic activity in different tumor models, ovarian carcinoma; assay type: cell-based, human; details: Number 8
[16] = system: Breast cancer tumor cell system; assay: Cytotoxic activity in different tumor models, breast cancer; assay type: cell-based, human; details: Number 4
[17] = system: NSC Lung cancer tumor cell system; assay: Cytotoxic activity in different tumor models, NSC lung cancer; assay type: cell-based, human; details: Number 8
[18] = system: Corpus cancer tumor cell system; assay: Cytotoxic activity in different tumor models, corpus cancer; assay type: cell-based, human; details: Number 4
[19] = system: Adenocarcinoma tumor cell system; assay: Cytotoxic activity in different tumor models, adenocarcinoma; assay type: cell-based, human; details: Number 5
[20] = system: 27 PHTC samples from 9 patients with hematological and 18 patients with solid tumours; assay: Circumvention of melphalan resistance, FMCA classification of PHTC samples; assay type: cell-based, human; details: 4 μM
[21] = system: solid tumour types, cell lines and primary cultures of human tumour cells from patients; assay: Tumour type specific spectrum of antitumour activity, solid tumour types; assay type: cell-based; details: for Activity in the listed diagnoses of Table 5: 4.0 μM; for Activity against solid tumour types (activity = at least 50% reduction in tumour cell survival): cell lines and PHTC
[22] = system: hematological tumors, primary cultures of human tumor cells from patients (PHTC); assay type: cell-based
[23] = system: solid tumors, primary cultures of human tumor cells from patients (PHTC); assay type: cell-based
[24] = system: Prostate cancer tumor cell system; assay: Cytotoxic activity in different tumor models, prostate cancer; assay type: cell-based, human; details: Number 1
[25] = system: U937vcr (vincristine resistance subline); assay type: cell-based, human
RPMI 8322 melanoma cells = details: cited from earlier work

## Nc1ccn([C@@H]2O[C@H](CO)[C@@H](O)[C@@H]2O)c(=O)n1 [AraC]
[1]
  Tumor cell survival index %, Solid (n = 22): 102%

## N.N.[Cl][Pt][Cl] [Cisplatin, cisplatin]
[2]
  IC50 (μM), MEAN: 18.0 µM

## CC(=O)O[C@@]12CO[C@@H]1C[C@H](O)[C@@]1(C)C(=O)[C@H](O)C3=C(C)[C@@H](OC(=O)[C@H](O)[C@@H](NC(=O)OC(C)(C)C)c4ccccc4)C[C@@](O)([C@@H](OC(=O)c4ccccc4)[C@H]21)C3(C)C [Docetaxel, docetaxel]
[1]
  Tumor cell survival index %, Solid (n = 22): 67%
[3]
  IC50: 0.46 µM
[4]
  IC50: 1.1 µM
[5]
  IC50: 5.94 µM
[6]
  IC50: 0.1 µM
[7]
  IC50: 0.1 µM
[8]
  IC50: 0.1 µM
[9]
  IC50: 7.7 µM

## COc1cccc2c1C(=O)c1c(O)c3c(c(O)c1C2=O)C[C@@](O)(C(=O)CO)C[C@@H]3O[C@H]1C[C@H](N)[C@H](O)[C@H](C)O1 [Doxorubicin, doxorubicin]
[10]
  Tumor cell survival index %, Hematological (n = 42): 29%
[1]
  Tumor cell survival index %, Solid (n = 22): 97%
[11]
  IC50: 0.18 µM
[12]
  IC50: 0.13 µM
[2]
  IC50 (μM), MEAN: 3.51 µM
[3]
  IC50: 0.42 µM
[4]
  IC50: ≥ 183 µM
[5]
  IC50: ≥ 183 µM
[6]
  IC50: 0.92 µM
[7]
  IC50: 0.52 µM
[8]
  IC50: 0.44 µM
[9]
  IC50: 2.21 µM

## COc1cc([C@@H]2c3cc4c(cc3[C@@H](O[C@@H]3O[C@@H]5CO[C@@H](C)O[C@H]5[C@H](O)[C@H]3O)[C@H]3COC(=O)[C@H]23)OCO4)cc(OC)c1O [Etoposide, etoposide]
[10]
  Tumor cell survival index %, Hematological (n = 42): 47%
[1]
  Tumor cell survival index %, Solid (n = 22): 81%

## CCOC(=O)[C@H](Cc1ccc(F)cc1)NC(=O)[C@@H](N)Cc1ccc(N(CCCl)CCCl)cc1.Cl [Example J1, L-Melphalanyl-L-p-fluorophenylalanine ethyl ester hydrochloride]
[13]
  Comparison of IC50s (FIG. 2): in all cases was more active than P2
[14]
  IC50: 0.9 µM
[15]
  Median response at 4.0 μM >50% reduction in tumor cell survival: Yes
[16]
  Median response at 4.0 μM >50% reduction in tumor cell survival: Yes
[17]
  Median response at 4.0 μM >50% reduction in tumor cell survival: Yes
[18]
  Median response at 4.0 μM >50% reduction in tumor cell survival: No
[19]
  Median response at 4.0 μM >50% reduction in tumor cell survival: Yes
[20]
  Number of samples classified EDR (extreme drug resistance): 1
  Number of samples classified IDR (intermediate drug resistance): 3
  Samples classified EDR (%): 6%
[21]
  Activity in the listed diagnoses of Table 5: active in most of these diagnoses
  Activity against solid tumour types (activity = at least 50% reduction in tumour cell survival): showed activity against several types of solid tumours

## CCOC(=O)[C@H](Cc1ccc(F)cc1)NC(=O)[C@H](Cc1ccc(N(CCCl)CCCl)cc1)NC(=O)[C@@H]1CCCN1.Cl [Example J3, L-Prolinyl-L-melphalanyl-L-p-fluorophenylalanine ethyl ester hydrochloride]
[22]
  Activity against hematological PHTC samples compared to melphalan and sarcolysine: more active
  Tumor cell survival index (%), Hematological tumors n = 7-11: 7%
[23]
  Activity against solid tumor samples compared to melphalan, sarcolysine and P2: more active
[15]
  Median response at 4.0 μM >50% reduction in tumor cell survival: Yes
[16]
  Median response at 4.0 μM >50% reduction in tumor cell survival: Yes
[17]
  Median response at 4.0 μM >50% reduction in tumor cell survival: Yes
[24]
  Median response at 4.0 μM >50% reduction in tumor cell survival: Yes
[18]
  Median response at 4.0 μM >50% reduction in tumor cell survival: Yes
[19]
  Median response at 4.0 μM >50% reduction in tumor cell survival: Yes
[20]
  Number of samples classified EDR (extreme drug resistance): 0 (0%)
  Number of samples classified IDR (intermediate drug resistance): 4
  Samples classified EDR (%): 0 (0%)
[21]
  Activity in the listed diagnoses of Table 5: active
  Activity against solid tumour types (activity = at least 50% reduction in tumour cell survival): showed activity against several types of solid tumours

## CCOC(=O)[C@H](Cc1ccc(F)cc1)NC(=O)[C@H](Cc1cccc(N(CCCl)CCCl)c1)NC(=O)[C@@H]1CCCN1 [Example P2, L-prolyl-m-L-sarcolysyl-p-L-fluorophenylalanine ethyl ester hydrochloride]
[13]
  Comparison of IC50s (FIG. 2): more active than melphalan
[25]
  IC50: 1.77 µM
[22]
  Tumor cell survival index (%), Hematological tumors n = 7-11: 7%
[15]
  Median response at 4.0 μM >50% reduction in tumor cell survival: No
[16]
  Median response at 4.0 μM >50% reduction in tumor cell survival: No
[17]
  Median response at 4.0 μM >50% reduction in tumor cell survival: No
[24]
  Median response at 4.0 μM >50% reduction in tumor cell survival: No
[18]
  Median response at 4.0 μM >50% reduction in tumor cell survival: No
[19]
  Median response at 4.0 μM >50% reduction in tumor cell survival: No
[20]
  Number of samples classified EDR (extreme drug resistance): 1
  Number of samples classified IDR (intermediate drug resistance): 4
  Samples classified EDR (%): 5%
[21]
  Activity in the listed diagnoses of Table 5: inactive
RPMI 8322 melanoma cells
  Toxicity to RPMI 8322 melanoma cells compared with the other PTC peptides: more toxic
